Measurements published in PMC10618743 (Cancer Discovery, 2023).

Legend:
[1] = tested on: pAKT (S473) in BT20 cells; experiment: pAKT (S473) HTRF; format: cell-based; conditions: Homo sapiens, BT-20; BT20, H1047R + P539R; 1 hour; read-out: pAKT HTRF GMean IC50 (95% CI)
Method: (§1) A 384-well phospho-AKT (S473) HTRF (Homogenous Time-Resolve Fluorescence; PerkinElmer, #64AKSPEH) assay was used for target engagement. Each well was seeded with cell numbers indicated in Supplementary Table S3 in a volume of 12.5 μL in complete, phenol red-free media and then treated for 1 hour at 37°C with 5% CO2 before reading on a PHERAstar plate reader.

[2] = tested on: pAKT (S473) in CAL148 cells; experiment: pAKT (S473) HTRF; format: cell-based; conditions: Homo sapiens, CAL-148; CAL148, H1047R + D350N; 1 hour; read-out: pAKT HTRF GMean IC50 (95% CI)
Method: as §1

[3] = tested on: pAKT (S473) in DETROIT562 cells; experiment: pAKT (S473) HTRF; format: cell-based; conditions: Homo sapiens, Detroit 562; DETROIT562, H1047R; 1 hour; read-out: pAKT HTRF GMean IC50 (95% CI)
Method: as §1

[4] = tested on: pAKT (S473) in EFM19 cells; experiment: pAKT (S473) HTRF; format: cell-based; conditions: Homo sapiens, EFM-19; EFM19, H1047L; 1 hour; read-out: pAKT HTRF GMean IC50 (95% CI)
Method: as §1

[5] = tested on: pAKT (S473) in GP2D cells; experiment: pAKT (S473) HTRF; format: cell-based; conditions: Homo sapiens, H1047L, 1 hour, read-out: pAKT HTRF GMean IC50 (95% CI)
Method: as §1

[6] = tested on: pAKT (S473) in NCIH1048 cells; experiment: pAKT (S473) HTRF; format: cell-based; conditions: Homo sapiens, NCI-H1048; NCIH1048, H1047R + K111R; 1 hour; read-out: pAKT HTRF GMean IC50 (95% CI)
Method: as §1

[7] = tested on: pAKT (S473) in OAW42 cells; experiment: pAKT (S473) HTRF; format: cell-based; conditions: Homo sapiens, OAW-42; OAW42, H1047L; 1 hour; read-out: pAKT HTRF GMean IC50 (95% CI)
Method: as §1

[8] = tested on: pAKT (S473) in SKBR3 cells; experiment: pAKT (S473) HTRF; format: cell-based; conditions: Homo sapiens, SK-BR-3; SKBR3, WT PI3Kα; 1 hour; read-out: pAKT HTRF GMean IC50 (95% CI)
Method: as §1

[9] = tested on: pAKT (S473) in T47D cells; experiment: pAKT (S473) HTRF; format: cell-based; conditions: Homo sapiens, 1 h, read-out: pAKT HTRF GMean IC50 (95% CI)
Method: as §1

[10] = Insulin tolerance test (ITT) and oral glucose tolerance test (OGTT); format: in vivo, mouse; conditions: 50 mg/kg dose levels
[11] = tested on: pAKT (S473) in CAL-33 tumors; experiment: CAL-33 tumor PK/PD, pAKT/AKT Western blot; format: in vivo, mouse; conditions: 50 mg/kg q.d.
[12] = tested on: NCI-H1048 lung carcinoma xenograft; experiment: NCI-H1048 xenograft efficacy study; format: in vivo, mouse; conditions: Alpelisib 50 mg/kg QD, Day 23
[13] = tested on: HCC1954 breast cancer xenograft; experiment: HCC1954 xenograft efficacy study; format: in vivo, mouse; conditions: Alpelisib 50 mg/kg QD, Day 28
[14] = alpelisib with ribociclib and fulvestrant, in the clinic; cited from earlier work

Cc1nc(NC(=O)N2CCC[C@H]2C(N)=O)sc1-c1ccnc(C(C)(C)C(F)(F)F)c1 [alpelisib]
IC50 [1]: 136 nM | IC50 [2]: 268 nM | IC50 [3]: 125 nM | IC50 [4]: 43 nM | IC50 [5]: 66 nM | IC50 [6]: 28 nM | IC50 [7]: 82 nM | IC50 [8]: 41 nM | IC50 [9]: 58 nM | insulin resistance [10]: overt insulin resistance | average pAKT suppression (treated/vehicle AUC1–12h) [11]: 66% | TGI (%) [12]: 87% | TGI (%) [13]: 77% | tolerability of triple combination [14]: not tolerated in the clinic
